Reference: patent publication US12636342B2, “TARS derived from Akkermansia muciniphila or fragment thereof, and use thereof” (KOREA RESEARCH INSTITUTE OF BIOSCIENCE AND BIOTECHNOLOGY, priority 2020, dated 2026)

Assays:
BMDMs = test: AmTARS-stimulated BMDMs pre-treated with kinase/CREB inhibitors; assay type: cell-based, mouse; settings: for IL-10 production by AmTARS: BMDMs pre-treated 1 h with inhibitor (10 μM; 666-15 1 μM) before AmTARS 24 h; for macrophage polarization (CD206 positive) by AmTARS: BMDMs pre-treated 1 h with inhibitor before AmTARS 24 h
Description: (A and B) Analysis of key molecules that inhibit the MAPK and PI3K/AKT signaling pathways. IL-10 produced by BMDMs pre-treated with inhibitors of ERK (PD98059, […]), p38 (SB203580, […]), MSK1/2 (SB747651A, 10 μM), CREB (666-15, 1 μM), PI3K (Wortmannin, 10 μM), and AKT1/2 (AKT1/2, 10 μM) for 1 h before treatment with either PBS or AmTARS for 24 h (n=6 per group) (A). Flow cytometry analysis of M2 macrophages in BMDMs pre-treated for 1 h with the indicated kinase inhibitors, before treatment with either PBS or AmTARS for 24 h (n=3 per group) (B). (C and D) Western blot analysis of MAPK signaling molecules in lysates of BMDMs (C) or THP1 cells (D) treated for different times with 0.5 μM AmTARS. (E) Western blot analysis of lysates of BMDMs pre-treated with α-IgG (Isotype, 1 μg ml-1) or α-TLR2 (1 μg ml-1) for 1 h before treatment with PBS, AmTARS (0.5 μM), or Pam3 (0.5 μM) for 30 min. (F and G) Western blot analysis of PI3K/AKT signaling molecules in lysates of BMDMs (F) or THP1 cells (G) treated with 0.5 μM AmTARS. […] Activation of AKT, ERK, and CREB was measured by western blot analysis of lysates of THP1 cells pre-treated with α-IgG, α-TLR1, α-TLR2, or α-TLR6 (1 μg ml-1) for 1 h before treatment for 30 min with PBS or AmTARS (0.5 µM). […] P-values were calculated using an unpaired two-tailed Student's t-test. Data shown in (C-H) are representative and repeated at least three times.
To identify the signaling pathway triggered by AmTARS, we first evaluated kinases and CREB. IL-10 production and M2 polarization were measured in BMDMs treated with inhibitors of ERK (PD98059), p38 (SB203580), MSK1/2 (SB747651A), CREB (666-15), PI3K (Wortmannin) and AKT (AKT1/2) before subsequent stimulation with AmTARS.

[1] = system: mouse bone marrow-derived macrophages (BMDMs); test: ELISA of immune cytokine secretion in LPS-treated BMDMs (inflammatory environment); assay type: cell-based
Description: To determine whether AmTARS affects immune cytokine secretion when cellular inflammation was induced, mouse bone marrow-derived macrophages BMDMs as mouse-derived immune cells and human macrophages THP1 as human-derived immune cells were cultured by way of the same method as in Example 2.
Specifically, the cultured BMDMs and THP1 were treated with lipopolysaccharide (LPS) to induce an inflammatory response and were simultaneously treated with AmTARS at 0.1 μM, 0.2 μM, and 0.5 μM for 24 h to obtain cell cultures. The obtained cell cultures were analyzed for immune cytokine secretion by way of the same method as in Example 2.
Next, BMDMs were treated with LPS to create an inflammatory environment by way of the same method as in Example 3, and then treated with each TARS (AmTARS, BfTARS, eTARS, and hTARS) to investigate the secretion of IL-10.
An inflammatory environment was created through LPS in BMDMs by way of the same method as in Example 3, and then the cells were treated with the four types of fragments, and the immune cytokine secretion was determined by ELISA.

[2] = Aminoacylation reaction (malachite green phosphate assay); assay type: biochemical; settings: L-threonine, ATP, 30 min, free Pi at 620 nm
Description: TARS is an […] involved in protein synthesis, and the domain and site involved in its function are well known. The constructed deletion mutants were confirmed to have deletions of parts irrelevant to the function, but the aminoacylation reaction experiment was conducted to determine whether the deletion mutants performed the intrinsic functions thereof appropriately.
Specifically, a 2× reaction solution (100 mM Tris-HCl (pH 7.5), 20 mM MgCl2, 200 mM NaCl, 200 mM KCl, 2 mM DTT, 500 μM ATP, and 5 mM L-threonine) was prepared, and 25 μL of a reaction solution, 20 μL of distilled water, and 5 μL of protein were added to make a final 50 μL volume, followed by incubation for 30 min. Thereafter, a reaction was conducted using a malachite green phosphate assay kit (Bioassay Systems) for 30 min, and the free monophosphate group (Pi) was measured at a wavelength of 620 nm.

[3] = system: mouse bone marrow-derived macrophages (BMDMs); test: ELISA of immune cytokine secretion in BMDMs under normal conditions; assay type: cell-based; settings: normal (non-inflammatory) conditions, 24 h
Description: Specifically, mouse bone marrow-derived macrophages (BMDMs) as mouse-derived immune cells were extracted from the mouse thighbone and shinbone, and then cultured in DMEM containing 10% fetal bovine serum (FBS) and antibiotics. Human macrophages (THP1) as human-derived immune cells were cultured in RPMI media containing 10% FBS and antibiotics.
The cultured cells were treated with AmTARS at 0.1 μM, 0.2 μM, and 0.5 μM for 24 h to obtain cell cultures. For cell removal, the media were centrifuged at 500×g for 10 min to obtain supernatants, which were then analyzed using an ELISA set (mouse interleukin (IL)-6, mouse IL-10, mouse tumor necrosis factor (TNF)-α, human IL-6, human IL-10, human TNF-α; BD Biosciences) to investigate the secretion of mouse- and human-derived immune cytokines. […]

[4] = LPS-induced inflammatory environment, 24 h

Molecule: O=c1[nH]c2ccccc2n1C1CCN(Cc2ccc(-c3nc4cc5[nH]cnc5cc4nc3-c3ccccc3)cc2)CC1 [AKT1/2]
- IL-10 production by AmTARS (BMDMs): significant suppression
- macrophage polarization (CD206 positive) by AmTARS (BMDMs): significant suppression

Molecule: COc1cccc(-c2cc(=O)c3ccccc3o2)c1N [PD98059]
- IL-10 production by AmTARS (BMDMs): significant suppression
- macrophage polarization (CD206 positive) by AmTARS (BMDMs): significant suppression

Molecule: C[S+]([O-])c1ccc(-c2nc(-c3ccncc3)c(-c3ccc(F)cc3)[nH]2)cc1 (stereo not shown) [SB203580]
- IL-10 production by AmTARS (BMDMs): significant suppression
- macrophage polarization (CD206 positive) by AmTARS (BMDMs): significant suppression

Molecule: R2: Functional site 2 peptide, SEQ ID NO: 4, residues 290-312 of SEQ ID NO: 1 (KLSQEGASCAELFNGLATGTIEG; Functional region 2(290˜312))
- secretion of IL-6 ([1]; LPS, peptide 100 μM): reduced
- secretion of IL-10 ([1]; LPS, peptide 100 μM): increased
- secretion of IL-6 ([1]; LPS, peptide 300 μM): reduced
- secretion of IL-10 ([1]; LPS, peptide 300 μM): increased
- secretion of IL-6 [1, 4]: reduced
- secretion of IL-10 [1, 4]: increased

Molecule: CCn1c(-c2nonc2N)nc2cncc(CNC3CCNCC3)c21 [SB747651A]
- IL-10 production by AmTARS (BMDMs): significant suppression
- macrophage polarization (CD206 positive) by AmTARS (BMDMs): significant suppression

B1: hTARS: TARS derived from Homo sapiens (protein)
chain: MFEEKASSPSGKMGGEEKPIGAGEEKQKEGGKKKNKEGSGDGGRAELNPWPEYIYTRLEMYNILKAEHDSILAEKAEKDSKPIKVTLPDGKQVDAESWKTTPYQIACGISQGLADNTVIAKVNNVVWDLDRPLEEDCTLELLKFEDEEAQAVYWHSSAHIMGEAMERVYGGCLCYGPPIENGFYYDMYLEEGGVSSNDFSSLEALCKKIIKEKQAFERLEVKKETLLAMFKYNKFKCRILNEKVNTPTTTVYRCGPLIDLCRGPHVRHTGKIKALKIHKNSSTYWEGKADMETLQRIYGISFPDPKMLKEWEKFQEEAKNRDHRKIGRDQELYFFHELSPGSCFFLPKGAYIYNALIEFIRSEYRKRGFQEVVTPNIFNSRLWMTSGHWQHYSENMFSFEVEKELFALKPMNCPGHCLMFDHRPRSWRELPLRLADFGVLHRNELSGALTGLTRVRRFQQDDAHIFCAMEQIEDEIKGCLDFLRTVYSVFGFSFKLNLSTRPEKFLGDIEVWDQAEKQLENSLNEFGEKWELNSGDGAFYGPKIDIQIKDAIGRYHQCATIQLDFQLPIRFNLTYVSHDGDDKKRPVIVHRAILGSVERMIAILTENYGGKWPFWLSPRQVMVVPVGPTCDEYAQKVRQQFHDAKFMADIDLDPGCTLNKKIRNAQLAQYNFILVVGEKEKISGTVNIRTRDNKVHGERTISETIERLQQLKEFRSKQAEEEF
modifications: 6xHis tag; misc_feature 1..2175 Homo sapiens TARS
- secretion of IL-10 [1, 4]: not significantly increased

B2: Akkermansia muciniphila-derived YARS (protein)
chain: MTIDEQLDILMGGTAVVISREELKERLKLGRPLRVKLGVDPTAPDIHLGHTVAIEKLRQFQELGHQAVLLIGDFTATIGDPSGRSVTRPPLSREQVLENAETYTKQAFKILDRDKTEIVYNGDWFRKMTYEEVLKLNSRVTMQQMLAREDFKARVEGGKEVRLHEMQYPIMQGWDSVEIRADVELGGTDQLFNILVGRDLQKEEGMLPQIAMTMPLLEGLDGVRKMSKSYGNYVGVDESPEMMFGKMMSASDELMDRYYLVLLGEKRDMGLHPMEAKKLLAWKITARYHDSAAADAARSDWETRFSKRDLAAADLPEVEIASLPADMNALALVSFLFENVFQVKKSNGVLRKEHFTPGAIQLNDVKMTDPSAVLELAPGSILRLSKKHAVRFK
modifications: 6xHis tag; misc_feature 1..1182 Akkermansia muciniphila YARS
notes: Akkermansia muciniphila tyrosyl-tRNA synthetase, used as control
- aminoacylation reaction / enzymatic activity [2]: no reaction

B3: BfTARS: TARS derived from Bacteroides fragilis (protein)
chain: MIKITFPDGSVREYNEGVNGLQIAESISSRLAQDVLACGVNGEIYDLGRPINEDASVVLYKWEDEQGKHAFWHTSAHLLAEALQELYPGIQFGIGPAIENGFYYDVDPGEAVIKEADLPAIEAKMAELVAKKEAVVRRDIAKGDALKMFGDRGETYKCELISELEDGHITTYTQGDFTDLCRGPHLMTTAPIKAIKLTSVAGAYWRGHEDRKMLTRIYGITFPKKKMLDEYLALMEEAKKRDHRKIGKEMQLFMFSDTVGKGLPMWLPKGTALRLRLQDFLRRIQTRYDYQEVITPPIGNKLLYVTSGHYAKYGKDAFQPIHTPEEGEEYFLKPMNCPHHCEIYKNFPRSYKDLPLRIAEFGTVCRYEQSGELHGLTRVRSFTQDDAHIFCRPDQVKGEFLRVMDIISIVFRSMDFDNFEAQISLRDKVNREKYIGSDENWEKAEQAIIEACEEKGLKAKIEYGEAAFYGPKLDFMVKDAIGRRWQLGTIQVDYNLPERFELEYMGSDNQKHRPVMIHRAPFGSMERFVAVLIEHTAGKFPLWLTPEQVVILPISEKFNEYAEKVKTYLKMKEIRAIVDDRNEKIGRKIRDNEMKRIPYMLIVGEKEAENGEVSVRRQGEGDKGTMKFEEFGEILNEEVQNMINKW
modifications: 6xHis tag; misc_feature 1..1941 Bacteroides fragilis TARS
- secretion of IL-10 [1, 4]: not significantly increased

B4: eTARS: TARS derived from E. coli (protein)
chain: MPVITLPDGSQRHYDHAVSPMDVALDIGPGLAKACIAGRVNGELVDACDLIENDAQLSIITAKDEEGLEIIRHSCAHLLGHAIKQLWPHTKMAIGPVIDNGFYYDVDLDRTLTQEDVEALEKRMHELAEKNYDVIKKKVSWHEARETFANRGESYKVSILDENIAHDDKPGLYFHEEYVDMCRGPHVPNMRFCHHFKLMKTAGAYWRGDSNNKMLQRIYGTAWADKKALNAYLQRLEEAAKRDHRKIGKQLDLYHMQEEAPGMVFWHNDGWTIFRELEVFVRSKLKEYQYQEVKGPFMMDRVLWEKTGHWDNYKDAMFTTSSENREYCIKPMNCPGHVQIFNQGLKSYRDLPLRMAEFGSCHRNEPSGSLHGLMRVRGFTQDDAHIFCTEEQIRDEVNGCIRLVYDMYSTFGFEKIVVKLSTRPEKRIGSDEMWDRAEADLAVALEENNIPFEYQLGEGAFYGPKIEFTLYDCLDRAWQCGTVQLDFSLPSRLSASYVGEDNERKVPVMIHRAILGSMERFIGILTEEFAGFFPTWLAPVQVVIMNITDSQSEYVNELTQKLSNAGIRVKADLRNEKIGFKIREHTLRRVPYMLVCGDKEVESGKVAVRTRRGKDLGSMDVNEVIEKLQQEIRSRSLKQLEE
modifications: 6xHis tag; misc_feature 1..1929 Escherichia coli TARS
- secretion/production of IL-10 [3]: no anti-inflammatory immune function
- secretion of IL-10 [1, 4]: not significantly increased
